Source: ChEMBL document CHEMBL5291721, “A preclinical secondary pharmacology resource illuminates target-adverse drug reaction associations of marketed drugs” (Nat Commun, 2023)

Columns and labels:
[1] = biological target: cGMP-inhibited 3',5'-cyclic phosphodiesterase 3A (Homo sapiens, UniProt Q14432); assay type: functional
[2] = biological target: D(3) dopamine receptor (Homo sapiens, UniProt P35462)
[3] = biological target: T1, Progesterone receptor (Homo sapiens, UniProt P06401)
T1 sequence (P06401 whole entry): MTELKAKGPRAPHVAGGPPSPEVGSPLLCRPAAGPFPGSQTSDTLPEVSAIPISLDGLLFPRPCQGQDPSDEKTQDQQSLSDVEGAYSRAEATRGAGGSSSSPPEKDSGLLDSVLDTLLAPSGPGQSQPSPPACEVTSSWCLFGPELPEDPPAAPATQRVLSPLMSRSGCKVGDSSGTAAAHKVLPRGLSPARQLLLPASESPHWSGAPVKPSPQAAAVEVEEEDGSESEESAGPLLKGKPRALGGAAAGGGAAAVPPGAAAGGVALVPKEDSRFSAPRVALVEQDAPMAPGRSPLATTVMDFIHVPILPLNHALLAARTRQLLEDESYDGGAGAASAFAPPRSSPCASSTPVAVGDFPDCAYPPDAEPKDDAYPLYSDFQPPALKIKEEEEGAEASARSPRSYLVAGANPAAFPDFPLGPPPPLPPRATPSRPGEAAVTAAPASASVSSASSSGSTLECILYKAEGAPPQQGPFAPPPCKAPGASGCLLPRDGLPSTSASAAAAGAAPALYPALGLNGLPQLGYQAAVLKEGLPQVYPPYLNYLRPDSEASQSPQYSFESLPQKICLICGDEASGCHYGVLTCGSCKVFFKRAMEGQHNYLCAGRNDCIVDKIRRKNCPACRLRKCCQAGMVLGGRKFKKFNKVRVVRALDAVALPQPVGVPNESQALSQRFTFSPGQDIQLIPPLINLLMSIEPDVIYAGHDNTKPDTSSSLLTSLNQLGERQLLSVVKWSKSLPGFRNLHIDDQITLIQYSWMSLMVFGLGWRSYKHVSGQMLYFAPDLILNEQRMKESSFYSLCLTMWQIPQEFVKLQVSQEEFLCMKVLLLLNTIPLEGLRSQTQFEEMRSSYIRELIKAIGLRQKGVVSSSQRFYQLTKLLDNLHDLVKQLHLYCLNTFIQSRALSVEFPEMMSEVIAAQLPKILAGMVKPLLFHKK

[4] = biological target: Sodium-dependent dopamine transporter (Homo sapiens, UniProt Q01959)
[5] = biological target: Histamine H3 receptor (Homo sapiens, UniProt Q9Y5N1)
[6] = biological target: Mu-type opioid receptor (Homo sapiens, UniProt P35372)
[7] = biological target: T2, Alpha-2A adrenergic receptor (Homo sapiens, UniProt P08913)
T2 sequence (P08913 whole entry): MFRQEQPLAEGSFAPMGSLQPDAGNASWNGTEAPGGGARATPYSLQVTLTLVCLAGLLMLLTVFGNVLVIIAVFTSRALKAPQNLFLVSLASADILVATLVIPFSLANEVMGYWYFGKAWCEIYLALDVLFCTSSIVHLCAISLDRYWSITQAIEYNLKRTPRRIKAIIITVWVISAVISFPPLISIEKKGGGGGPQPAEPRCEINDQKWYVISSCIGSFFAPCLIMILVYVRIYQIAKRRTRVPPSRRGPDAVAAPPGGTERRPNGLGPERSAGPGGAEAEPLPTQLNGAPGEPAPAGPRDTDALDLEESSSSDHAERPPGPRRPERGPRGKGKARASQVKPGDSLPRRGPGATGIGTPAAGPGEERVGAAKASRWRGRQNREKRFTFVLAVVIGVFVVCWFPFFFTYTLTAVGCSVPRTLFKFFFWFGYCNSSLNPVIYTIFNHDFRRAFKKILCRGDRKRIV

[8] = biological target: T3, Alpha-1A adrenergic receptor (Homo sapiens, UniProt P35348); assay type: functional, cell-based
T3 sequence (P35348 whole entry): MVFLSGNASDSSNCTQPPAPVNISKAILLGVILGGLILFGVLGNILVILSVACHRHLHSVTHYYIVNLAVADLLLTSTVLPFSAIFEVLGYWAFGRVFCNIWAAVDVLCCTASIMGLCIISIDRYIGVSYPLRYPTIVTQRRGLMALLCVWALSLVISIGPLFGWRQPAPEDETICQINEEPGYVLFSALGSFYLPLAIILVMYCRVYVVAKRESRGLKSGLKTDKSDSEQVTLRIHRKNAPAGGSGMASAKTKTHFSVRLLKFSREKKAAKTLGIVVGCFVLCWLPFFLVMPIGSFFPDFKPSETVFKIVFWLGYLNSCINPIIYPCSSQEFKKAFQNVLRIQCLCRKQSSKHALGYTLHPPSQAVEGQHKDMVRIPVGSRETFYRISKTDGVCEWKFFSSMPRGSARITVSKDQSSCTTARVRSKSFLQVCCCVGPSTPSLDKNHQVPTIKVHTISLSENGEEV

[9] = biological target: Sodium-dependent noradrenaline transporter (Homo sapiens, UniProt P23975)
[10] = biological target: T4, Thromboxane A2 receptor (Homo sapiens, UniProt P21731); assay type: functional, cell-based
T4 sequence (P21731 whole entry): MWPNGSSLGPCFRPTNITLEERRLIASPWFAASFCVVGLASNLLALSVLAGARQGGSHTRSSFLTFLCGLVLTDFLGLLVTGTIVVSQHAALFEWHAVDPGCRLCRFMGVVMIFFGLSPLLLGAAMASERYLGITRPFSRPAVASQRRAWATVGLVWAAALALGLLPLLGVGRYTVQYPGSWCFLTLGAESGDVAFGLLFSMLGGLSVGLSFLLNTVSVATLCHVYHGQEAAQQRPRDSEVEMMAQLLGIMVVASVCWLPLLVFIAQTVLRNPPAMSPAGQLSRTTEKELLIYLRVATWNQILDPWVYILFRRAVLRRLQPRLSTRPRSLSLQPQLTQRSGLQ

[11] = biological target: 5-hydroxytryptamine receptor 2B (Homo sapiens, UniProt P41595); assay type: functional, cell-based
[12] = biological target: D(1A) dopamine receptor (Homo sapiens, UniProt P21728)
[13] = biological target: Prostaglandin G/H synthase 1 (Homo sapiens, UniProt P23219); assay type: functional
[14] = biological target: Prothrombin (Homo sapiens, UniProt P00734); assay type: functional
[15] = biological target: Voltage-gated inwardly rectifying potassium channel KCNH2 (Homo sapiens, UniProt Q12809); assay type: functional
Note: assay procedure not described here.

Chain of D(1A) dopamine receptor (P21728 whole entry): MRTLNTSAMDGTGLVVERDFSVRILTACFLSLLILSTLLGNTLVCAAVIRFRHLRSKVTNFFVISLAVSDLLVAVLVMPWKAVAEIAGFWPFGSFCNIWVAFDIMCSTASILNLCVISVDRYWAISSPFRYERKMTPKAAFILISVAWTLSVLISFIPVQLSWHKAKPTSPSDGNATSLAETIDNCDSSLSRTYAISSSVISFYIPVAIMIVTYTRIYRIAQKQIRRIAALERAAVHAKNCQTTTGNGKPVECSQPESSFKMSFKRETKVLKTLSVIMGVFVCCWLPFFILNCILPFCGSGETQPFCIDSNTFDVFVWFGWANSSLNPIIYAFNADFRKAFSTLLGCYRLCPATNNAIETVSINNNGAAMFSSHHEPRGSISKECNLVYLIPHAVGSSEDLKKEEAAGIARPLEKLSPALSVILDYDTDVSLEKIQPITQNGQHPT
Chain of Prostaglandin G/H synthase 1 (P23219 whole entry): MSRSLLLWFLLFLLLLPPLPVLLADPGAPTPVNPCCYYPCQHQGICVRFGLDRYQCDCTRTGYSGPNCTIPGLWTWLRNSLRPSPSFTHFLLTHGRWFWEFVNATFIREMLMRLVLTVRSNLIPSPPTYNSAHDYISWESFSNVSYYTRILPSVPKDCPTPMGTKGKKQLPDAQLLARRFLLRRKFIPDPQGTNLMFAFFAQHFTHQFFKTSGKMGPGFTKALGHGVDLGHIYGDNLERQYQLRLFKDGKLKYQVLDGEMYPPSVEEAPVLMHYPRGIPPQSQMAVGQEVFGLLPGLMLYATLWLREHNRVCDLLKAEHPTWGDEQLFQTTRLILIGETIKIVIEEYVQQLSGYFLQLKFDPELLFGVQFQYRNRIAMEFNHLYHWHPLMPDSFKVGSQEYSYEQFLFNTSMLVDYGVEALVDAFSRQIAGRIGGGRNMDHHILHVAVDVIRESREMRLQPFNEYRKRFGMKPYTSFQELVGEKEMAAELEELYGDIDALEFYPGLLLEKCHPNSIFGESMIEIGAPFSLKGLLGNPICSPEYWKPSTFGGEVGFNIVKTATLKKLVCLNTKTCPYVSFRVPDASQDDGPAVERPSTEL
Chain of Sodium-dependent dopamine transporter (Q01959 whole entry): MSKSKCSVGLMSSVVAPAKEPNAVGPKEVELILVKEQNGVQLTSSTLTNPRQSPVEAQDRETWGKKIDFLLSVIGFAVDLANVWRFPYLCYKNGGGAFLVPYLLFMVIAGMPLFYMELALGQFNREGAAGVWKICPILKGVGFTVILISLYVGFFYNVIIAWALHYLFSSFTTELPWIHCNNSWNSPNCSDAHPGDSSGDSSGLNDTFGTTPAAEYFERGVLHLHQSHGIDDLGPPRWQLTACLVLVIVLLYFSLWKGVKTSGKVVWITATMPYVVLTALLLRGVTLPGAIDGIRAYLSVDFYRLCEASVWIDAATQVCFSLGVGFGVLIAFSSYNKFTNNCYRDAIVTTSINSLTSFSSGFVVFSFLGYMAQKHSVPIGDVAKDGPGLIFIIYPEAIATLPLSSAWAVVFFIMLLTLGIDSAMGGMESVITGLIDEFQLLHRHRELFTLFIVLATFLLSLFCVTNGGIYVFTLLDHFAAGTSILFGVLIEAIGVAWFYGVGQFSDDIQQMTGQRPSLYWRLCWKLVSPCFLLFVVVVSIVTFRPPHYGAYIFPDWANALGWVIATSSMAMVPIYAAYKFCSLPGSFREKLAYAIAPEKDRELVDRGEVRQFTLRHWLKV
Chain of Sodium-dependent noradrenaline transporter (P23975 whole entry): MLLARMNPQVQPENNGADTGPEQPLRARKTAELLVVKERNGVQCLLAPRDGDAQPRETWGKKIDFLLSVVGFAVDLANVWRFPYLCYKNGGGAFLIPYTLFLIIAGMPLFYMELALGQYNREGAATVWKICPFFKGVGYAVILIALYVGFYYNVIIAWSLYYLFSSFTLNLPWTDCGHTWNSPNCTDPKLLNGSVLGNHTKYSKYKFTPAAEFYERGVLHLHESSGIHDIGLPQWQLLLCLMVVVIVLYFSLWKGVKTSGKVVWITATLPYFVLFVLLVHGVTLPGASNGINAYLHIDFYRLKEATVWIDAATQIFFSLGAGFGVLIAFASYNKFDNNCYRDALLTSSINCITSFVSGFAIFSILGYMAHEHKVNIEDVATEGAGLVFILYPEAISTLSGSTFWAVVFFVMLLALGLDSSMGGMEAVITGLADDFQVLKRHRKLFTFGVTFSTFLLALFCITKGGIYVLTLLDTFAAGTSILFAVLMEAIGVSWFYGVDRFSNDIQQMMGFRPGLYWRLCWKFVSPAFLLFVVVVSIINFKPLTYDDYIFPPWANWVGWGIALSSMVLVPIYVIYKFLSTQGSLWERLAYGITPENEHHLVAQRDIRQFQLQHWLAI
Chain of D(3) dopamine receptor (P35462 whole entry): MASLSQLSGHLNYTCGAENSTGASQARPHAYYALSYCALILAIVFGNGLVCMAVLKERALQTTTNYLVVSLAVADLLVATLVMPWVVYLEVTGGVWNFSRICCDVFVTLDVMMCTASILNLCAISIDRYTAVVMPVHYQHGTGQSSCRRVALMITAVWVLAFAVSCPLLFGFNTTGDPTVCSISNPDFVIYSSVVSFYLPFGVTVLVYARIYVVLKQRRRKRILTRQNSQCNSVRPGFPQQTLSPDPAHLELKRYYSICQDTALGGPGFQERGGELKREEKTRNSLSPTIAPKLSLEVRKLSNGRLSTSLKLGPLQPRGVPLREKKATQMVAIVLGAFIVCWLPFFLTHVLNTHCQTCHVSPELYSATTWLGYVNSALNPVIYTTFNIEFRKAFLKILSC
Chain of cGMP-inhibited 3',5'-cyclic phosphodiesterase 3A (Q14432 whole entry): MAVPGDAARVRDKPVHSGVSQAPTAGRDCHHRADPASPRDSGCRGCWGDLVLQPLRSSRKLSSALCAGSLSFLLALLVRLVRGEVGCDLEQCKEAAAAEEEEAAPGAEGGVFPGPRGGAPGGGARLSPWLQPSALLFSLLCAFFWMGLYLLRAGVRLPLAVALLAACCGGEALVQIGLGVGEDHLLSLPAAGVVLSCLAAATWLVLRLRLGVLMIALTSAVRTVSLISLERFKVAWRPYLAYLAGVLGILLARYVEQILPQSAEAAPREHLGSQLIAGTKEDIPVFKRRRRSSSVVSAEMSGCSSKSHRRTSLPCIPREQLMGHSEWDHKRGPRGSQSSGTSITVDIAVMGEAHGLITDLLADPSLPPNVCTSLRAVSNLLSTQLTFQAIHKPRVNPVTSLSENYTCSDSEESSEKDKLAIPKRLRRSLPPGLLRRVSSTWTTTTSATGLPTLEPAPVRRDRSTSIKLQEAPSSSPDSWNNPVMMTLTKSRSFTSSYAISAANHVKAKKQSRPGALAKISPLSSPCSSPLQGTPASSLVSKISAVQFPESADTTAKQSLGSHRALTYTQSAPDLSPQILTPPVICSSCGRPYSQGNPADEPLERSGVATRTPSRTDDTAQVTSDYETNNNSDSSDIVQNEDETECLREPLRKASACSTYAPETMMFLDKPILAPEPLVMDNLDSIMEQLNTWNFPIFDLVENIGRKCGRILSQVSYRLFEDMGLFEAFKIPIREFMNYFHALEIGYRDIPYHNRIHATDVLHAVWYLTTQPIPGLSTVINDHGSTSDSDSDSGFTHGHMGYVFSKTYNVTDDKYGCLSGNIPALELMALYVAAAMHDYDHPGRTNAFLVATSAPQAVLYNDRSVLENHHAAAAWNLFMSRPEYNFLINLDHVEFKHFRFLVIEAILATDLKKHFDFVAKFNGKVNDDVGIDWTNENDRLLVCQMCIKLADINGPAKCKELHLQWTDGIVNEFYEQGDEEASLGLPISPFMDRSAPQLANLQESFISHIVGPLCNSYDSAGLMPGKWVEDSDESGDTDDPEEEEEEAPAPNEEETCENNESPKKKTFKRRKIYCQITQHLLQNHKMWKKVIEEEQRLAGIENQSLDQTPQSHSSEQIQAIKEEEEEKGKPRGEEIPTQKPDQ
Chain of 5-hydroxytryptamine receptor 2B (P41595 whole entry): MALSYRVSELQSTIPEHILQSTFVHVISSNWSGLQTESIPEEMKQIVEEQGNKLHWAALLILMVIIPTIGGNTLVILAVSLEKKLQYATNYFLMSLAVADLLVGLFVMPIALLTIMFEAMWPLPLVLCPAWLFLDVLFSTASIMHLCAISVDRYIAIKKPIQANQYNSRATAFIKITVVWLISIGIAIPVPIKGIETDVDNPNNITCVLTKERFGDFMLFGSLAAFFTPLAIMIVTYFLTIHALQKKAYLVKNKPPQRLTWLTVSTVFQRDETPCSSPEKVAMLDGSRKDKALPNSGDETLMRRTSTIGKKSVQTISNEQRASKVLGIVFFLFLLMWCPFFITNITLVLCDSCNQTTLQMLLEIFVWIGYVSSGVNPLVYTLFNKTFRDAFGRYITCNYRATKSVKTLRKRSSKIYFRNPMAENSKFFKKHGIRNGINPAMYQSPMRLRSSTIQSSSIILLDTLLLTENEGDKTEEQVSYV
Chain of Histamine H3 receptor (Q9Y5N1 whole entry): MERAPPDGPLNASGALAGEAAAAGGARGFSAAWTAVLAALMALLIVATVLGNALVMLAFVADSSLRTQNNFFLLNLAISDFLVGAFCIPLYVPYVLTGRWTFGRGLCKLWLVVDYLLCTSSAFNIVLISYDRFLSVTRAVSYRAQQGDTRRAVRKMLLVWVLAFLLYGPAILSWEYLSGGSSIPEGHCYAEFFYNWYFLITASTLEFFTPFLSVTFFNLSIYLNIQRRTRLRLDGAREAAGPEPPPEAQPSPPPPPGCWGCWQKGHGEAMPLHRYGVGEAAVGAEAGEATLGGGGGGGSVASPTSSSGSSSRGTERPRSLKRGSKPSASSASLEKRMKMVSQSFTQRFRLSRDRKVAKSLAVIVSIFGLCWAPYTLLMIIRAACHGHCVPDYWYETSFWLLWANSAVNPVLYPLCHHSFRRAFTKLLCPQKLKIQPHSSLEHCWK

In the case of CC(=O)NO [ACETOHYDROXAMIC ACID], the AC50 [1] is reported as > 30 µM, the AC50 [2] is reported as > 30 µM and the AC50 [3] is reported as > 30 µM. For the same molecule, the AC50 [4] was > 30 µM, the AC50 [5] was > 30 µM and the AC50 [6] was > 30 µM. The AC50 [7] was > 30 µM, the AC50 [8] was > 30 µM and the AC50 [9] was > 30 µM. The AC50 [10] was > 30 µM, the AC50 [11] was > 30 µM and the AC50 [12] was > 30 µM. The AC50 [13] was > 30 µM and the AC50 [14] was > 30 µM.

With C[C@H]1CN(C[C@H](Cc2ccccc2)C(=O)NCC(=O)O)CC[C@@]1(C)c1cccc(O)c1 [ALVIMOPAN] the AC50 [1] was > 30 µM, the AC50 [2] was > 30 µM and the AC50 [3] was > 30 µM. The AC50 [4] was > 30 µM, the AC50 [5] was > 30 µM and the AC50 [7] was > 30 µM. The AC50 [8] was > 30 µM, the AC50 [9] was > 30 µM and the AC50 [15] was > 30 µM. The AC50 [10] was > 30 µM, the AC50 [11] was > 30 µM and the AC50 [12] was > 30 µM. The AC50 [13] was > 3 µM and the AC50 [14] was > 30 µM.

O=C(O)c1ccccc1 [BENZOIC ACID] was tested, and the AC50 [1] was > 30 µM, the AC50 [2] was > 30 µM and the AC50 [3] was > 30 µM. The AC50 [4] was > 30 µM, the AC50 [5] was > 30 µM and the AC50 [6] was > 30 µM. The AC50 [7] was > 30 µM, the AC50 [8] was > 30 µM and the AC50 [9] was > 30 µM. The AC50 [10] was > 30 µM, the AC50 [11] was > 30 µM and the AC50 [12] was > 30 µM. The AC50 [13] was > 30 µM and the AC50 [14] was > 30 µM.

CCCCc1oc2ccc(NS(C)(=O)=O)cc2c1C(=O)c1ccc(OCCCN(CCCC)CCCC)cc1 [DRONEDARONE] was tested, and the AC50 [1] was > 30 µM, the AC50 [2] was 0.642 µM and the AC50 [3] was 0.64 µM. The AC50 [4] was 1.73 µM, the AC50 [5] was 28.4 µM and the AC50 [6] was 3.09 µM. For the same molecule, the AC50 [7] was 13.4 µM, the AC50 [8] was > 30 µM and the AC50 [9] was 3.98 µM. The AC50 [10] was > 30 µM, the AC50 [11] was > 30 µM and the AC50 [12] was 5.4 µM. The AC50 [13] was > 30 µM and the AC50 [14] was > 30 µM.

For CC(C)C(=O)Oc1ccc(CO)cc1[C@H](CCN(C(C)C)C(C)C)c1ccccc1 [FESOTERODINE], the AC50 [1] was > 30 µM, the AC50 [2] was > 30 µM and the AC50 [3] was > 30 µM. For the same molecule, the AC50 [4] was > 30 µM, the AC50 [5] was > 30 µM and the AC50 [6] was > 30 µM. For the same molecule, the AC50 [7] was > 30 µM, the AC50 [8] was > 30 µM and the AC50 [9] was > 30 µM. The AC50 [10] was > 30 µM, the AC50 [11] was > 30 µM and the AC50 [12] was > 30 µM. For the same molecule, the AC50 [13] was > 30 µM and the AC50 [14] was > 30 µM.

In the case of N=C(N)N/N=C/c1c(Cl)cccc1Cl [GUANABENZ], the AC50 [1] is reported as > 30 µM, the AC50 [2] is reported as 10.5 µM and the AC50 [3] is reported as > 30 µM. The AC50 [4] was 12.8 µM, the AC50 [5] was > 30 µM and the AC50 [6] was 5.18 µM. For the same molecule, the AC50 [8] was 0.0423 µM, the AC50 [9] was 8.81 µM and the AC50 [15] was > 30 µM. For the same molecule, the AC50 [10] was > 30 µM, the AC50 [11] was > 30 µM and the AC50 [12] was 8.03 µM. For the same molecule, the AC50 [13] was > 30 µM and the AC50 [14] was > 30 µM.

With C[N+](C)(CCCCCC[N+](C)(C)C1c2ccccc2-c2ccccc21)C1c2ccccc2-c2ccccc21 [HEXAFLUORENIUM] the AC50 [1] was > 30 µM, the AC50 [2] was 0.0671 µM and the AC50 [3] was > 30 µM. For the same molecule, the AC50 [4] was 4.5 µM, the AC50 [5] was 2.72 µM and the AC50 [6] was 1.03 µM. For the same molecule, the AC50 [7] was 2.19 µM, the AC50 [8] was > 30 µM and the AC50 [9] was 1.44 µM. The AC50 [10] was > 30 µM, the AC50 [11] was > 30 µM and the AC50 [12] was 19.3 µM. The AC50 [13] was > 30 µM and the AC50 [14] was > 30 µM.

With CCC1=C[C@@H]2CN(C1)Cc1c([nH]c3ccccc13)[C@@](C(=O)OC)(c1cc3c(cc1OC)N(C)[C@H]1[C@@](O)(C(=O)OC)[C@H](OC(C)=O)[C@]4(CC)C=CCN5CC[C@]31[C@@H]54)C2 [VINORELBINE] the AC50 [1] was > 30 µM, the AC50 [2] was > 30 µM and the AC50 [3] was > 30 µM. The AC50 [4] was > 30 µM, the AC50 [5] was > 30 µM and the AC50 [6] was 6.76 µM. The AC50 [7] was > 30 µM, the AC50 [8] was > 30 µM and the AC50 [9] was > 30 µM. The AC50 [15] was 5.5 µM, the AC50 [10] was > 30 µM and the AC50 [11] was > 30 µM. The AC50 [12] was > 30 µM and the AC50 [14] was > 30 µM.

With O=C1Cc2cc(CCN3CCN(c4nsc5ccccc45)CC3)c(Cl)cc2N1 [ZIPRASIDONE] the AC50 [1] was > 30 µM, the AC50 [3] was > 30 µM and the AC50 [4] was 0.0875 µM. The AC50 [5] was > 30 µM, the AC50 [6] was 5.06 µM and the AC50 [8] was > 30 µM. For the same molecule, the AC50 [9] was 0.507 µM, the AC50 [10] was > 30 µM and the AC50 [11] was > 30 µM. For the same molecule, the AC50 [13] was > 30 µM and the AC50 [14] was > 30 µM.
